This passage reports IC50 results from patent publication US20240327380A1, “BTK INHIBITORS” (BIOGEN MA INC., priority 2020, published 2024).

Structures are written as SMILES. Like-named read-outs stand apart in the source and are kept apart here. Some results are limits rather than exact numbers.

Experiment [1] addresses T1, active BTK enzyme (Upstate 14-552) (Homo sapiens, UniProt Q06187).
T1 construct: purchased Upstate 14-552
Briefly: In Vitro BTK Kinase Assay: Btk-PolyGAT-LS Assay. The experiment is classed as biochemical. The note with it: ATP 10 μM, polyGAT 100 nM, BTK 0.25 nM, 30 minutes, TRF readout. The procedure, abridged:
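Active BTK (0.25 nM) phosphorylates fluorescein-polyGAT peptide (100 nM) with 10 µM ATP in Tris-HCl pH 7.5/MgCl2/DTT buffer, 30 min, EDTA stop. Phosphopeptide detected by TR-FRET with Tb-PY20 antibody after 45 min at room temperature; IC50 from four-parameter fit against DMSO and EDTA controls.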

Experiment [2] deals with CD69 expression on CD19+ B cells in human whole blood. Briefly: In Vitro whole blood CD69 Assay. The experiment is classed as cell-based. The note with it: B-cell. As to the method: In Vitro whole blood CD69 Assay
Human heparinized venous blood from health donors was aliquoted into 96-well plate and “spiked” with serial dilutions of formula I compounds in DMSO or with DMSO without drug. The final concentration of DMSO in all wells was 0.1%. The plate was incubated at 37° C. for 30 min. Drug-containing samples were stimulated with […] mouse anti-human IgD-dextran (1A62) or […] polyclonal rabbit F(ab′)2 anti-human IgD. Phosphate-buffered saline (PBS) was added to the negative control unstimulated sample and the plates were incubated overnight (18 to 22 hours) at 37° C. Cells were stained with fluorochrome-conjugated anti-CD19 and anti-CD69 antibodies. Lyse/fix solution was used to remove red blood cells by hypotonic lysis and to fix the remaining cells, which were then analyzed by flow cytometry. CD19+ B cells were gated and analyzed for CD69 expression. The percentage of B cells expressing CD69 was plotted versus the log 10 of the concentration of the drug and the best-fit curves (variable Hill slope) were generated to obtain the IC50 value.

The mark [3] stands for this setting: human heparinized whole blood, anti-human IgD stimulation overnight, percentage of CD19+ B cells expressing CD69, flow cytometry, read-out: IC50.

T1 sequence (Q06187 whole entry): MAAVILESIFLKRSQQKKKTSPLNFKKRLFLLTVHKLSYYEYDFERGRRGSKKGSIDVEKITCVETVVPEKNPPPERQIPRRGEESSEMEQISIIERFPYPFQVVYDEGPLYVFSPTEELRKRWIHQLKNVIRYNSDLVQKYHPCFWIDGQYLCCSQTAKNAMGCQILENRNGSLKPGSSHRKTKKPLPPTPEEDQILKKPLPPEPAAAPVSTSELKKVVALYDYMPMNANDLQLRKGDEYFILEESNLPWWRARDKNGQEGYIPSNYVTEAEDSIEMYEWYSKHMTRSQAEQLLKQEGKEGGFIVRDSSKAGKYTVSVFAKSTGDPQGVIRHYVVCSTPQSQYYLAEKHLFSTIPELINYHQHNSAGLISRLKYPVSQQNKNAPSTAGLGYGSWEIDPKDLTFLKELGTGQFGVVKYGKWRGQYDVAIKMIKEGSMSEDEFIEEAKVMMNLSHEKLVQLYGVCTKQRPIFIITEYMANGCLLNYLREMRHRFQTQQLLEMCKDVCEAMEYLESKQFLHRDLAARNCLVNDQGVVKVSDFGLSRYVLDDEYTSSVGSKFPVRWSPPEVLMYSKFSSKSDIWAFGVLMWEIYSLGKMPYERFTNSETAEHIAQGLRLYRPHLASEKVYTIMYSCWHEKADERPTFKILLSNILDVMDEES

`C=CC(=O)N(C)[C@@H]1CCCN(c2cncc(F)c2-c2ccc(CNC(=O)c3cn(C(C)(C)C)nn3)c(C)c2)C1` [Example 56, 1-tert-butyl-N-[[4-[3-fluoro-5-[(3R)-3-[methyl(prop-2-enoyl)amino]-1-piperidyl]-4-pyridyl]-2-methyl-phenyl]methyl]triazole-4-carboxamide]: the figures for the 50% inhibitory concentration (IC50) in experiment [1] and in experiment [2] (setting [3]) were ≤ 1 nM and 100 to 1000 nM, respectively.
The corresponding values for `Cc1cc(-c2ccncc2N2CCN(C(=O)/C=C/CN(C)C)CC2)ccc1CN(C)C(=O)c1noc(C(C)(C)C)n1` [Example 71, (E)-5-(tert-butyl)-N-(4-(3-(4-(4-(dimethylamino)but-2-enoyl)piperazin-1-yl)pyridin-4-yl)-2-methylbenzyl)-N-methyl-1,2,4-oxadiazole-3-carboxamide] are 1 to 10 nM and 100 to 1000 nM.
Turning to `Cc1cc(-c2ncncc2N2CCN(C(=O)/C=C/CN(C)C)CC2)ccc1CNC(=O)c1nc(C2(C)CC2)no1` [Example 85, (E)-N-(4-(5-(4-(4-(dimethylamino)but-2-enoyl)piperazin-1-yl)pyrimidin-4-yl)-2-methylbenzyl)-3-(1-methylcyclopropyl)-1,2,4-oxadiazole-5-carboxamide], the IC50 was ≤ 1 nM in experiment [1] and < 100 nM in experiment [2] (setting [3]).
Turning to `C=CC(=O)N1CCC[C@H](c2cnccc2-c2ccc(CNC(=O)c3nc(C4(C)CC4)no3)c(C)c2)C1` (single isomer, unassigned) [Example 30], the IC50 in experiment [1] is 1 to 10 nM; in experiment [2] (setting [3]) it was > 1000 nM.
On the same counts, the results for `Cc1cc(-c2ccncc2N2CCN(C(=O)/C=C/CN(C)C)CC2)ccc1CNC(=O)c1nc(C2(CF)CC2)no1` [Example 94, (E)-N-(4-(3-(4-(4-(dimethylamino)but-2-enoyl)piperazin-1-yl)pyridin-4-yl)-2-methylbenzyl)-3-(1-(fluoromethyl)cyclopropyl)-1,2,4-oxadiazole-5-carboxamide] are ≤ 1 nM and 100 to 1000 nM.
Turning to `C=CC(=O)N(C)C1CCCN(c2cnccc2-c2ccc(CNC(=O)c3nc(C(C)(C)C)no3)c(C)c2)C1` (centres unmarked) [Example 13, 3-(tert-butyl)-N-(2-methyl-4-(3-(3-(N-methylacrylamido)piperidin-1-yl)pyridin-4-yl)benzyl)-1,2,4-oxadiazole-5-carboxamide], the IC50 was ≤ 1 nM in experiment [1] and < 100 nM in experiment [2] (setting [3]).
`C=CC(=O)N(C)C1CCCN(c2cnccc2-c2ccc(CNC(=O)c3ncn(C(C)(C)C)n3)c(C)c2)C1` (centres unmarked) [Example 40, 1-(tert-butyl)-N-(2-methyl-4-(3-(3-(N-methylacrylamido)piperidin-1-yl)pyridin-4-yl)benzyl)-1H-1,2,4-triazole-3-carboxamide]: the figures for the half-maximal inhibitory concentration (IC50) in experiment [1] and in experiment [2] (setting [3]) were 1 to 10 nM and > 1000 nM, respectively.
The corresponding values for `C=CC(=O)N(C)[C@H]1CCCN(c2cnccc2-c2ccc(CNC(=O)c3cn(C(C)(C)C)nn3)c(C)c2)C1` [Example 15, (S)-1-(tert-butyl)-N-(2-methyl-4-(3-(3-(N-methylacrylamido)piperidin-1-yl)pyridin-4-yl)benzyl)-1H-1,2,3-triazole-4-carboxamide] are > 10 nM and > 1000 nM.
For the molecule `C=CC(=O)N(C)C1CCCN(c2cnccc2-c2ccc(CNC(=O)c3ccn(C(C)(C)C)n3)c(C)c2)C1` (centres unmarked) [Example 44, 1-(tert-butyl)-N-(2-methyl-4-(3-(3-(N-methylacrylamido)piperidin-1-yl)pyridin-4-yl)benzyl)-1H-pyrazole-3-carboxamide], the half-maximal inhibitory concentration (IC50) was 1 to 10 nM in experiment [1] and > 1000 nM in experiment [2] (setting [3]).
The corresponding values for `C=CC(=O)N(C)C1CCCN(c2cnccc2-c2ccc(CNC(=O)c3cc(C(C)(C)C)on3)c(C)c2)C1` (centres unmarked) [Example 14, 5-(tert-butyl)-N-(2-methyl-4-(3-(3-(N-methylacrylamido)piperidin-1-yl)pyridin-4-yl)benzyl)isoxazole-3-carboxamide] are ≤ 1 nM and 100 to 1000 nM.
Regarding `C=CC(=O)N(C)C1CCCN(c2cnccc2-c2ccc(CNC(=O)c3nc(C(C)(C)C)co3)c(C)c2)C1` (centres unmarked) [Example 39, 4-(tert-butyl)-N-(2-methyl-4-(3-(3-(N-methylacrylamido)piperidin-1-yl)pyridin-4-yl)benzyl)oxazole-2-carboxamide], the IC50 in experiment [1] was ≤ 1 nM; in experiment [2] (Homo sapiens) it was 100 to 1000 nM.
Consider `C=CC(=O)N1CCCC(c2cnccc2-c2ccc(CNC(=O)c3nc(C4(C)CC4)no3)c(C)c2)C1` (centres unmarked) [Example 29, N-(4-(3-(1-acryloylpiperidin-3-yl)pyridin-4-yl)-2-methylbenzyl)-3-(1-methylcyclopropyl)-1,2,4-oxadiazole-5-carboxamide], for which the 50% inhibitory concentration (IC50) was 1 to 10 nM in experiment [1] and > 1000 nM in experiment [2] (setting [3]).
For `C=CC(=O)N1CCCC(c2cnccc2-c2ccc(CNC(=O)c3cn(C(C)(C)C)nn3)c(C)c2)C1` (centres unmarked) [Example 23, N-(4-(3-(1-acryloylpiperidin-3-yl)pyridin-4-yl)-2-methylbenzyl)-1-(tert-butyl)-1H-1,2,3-triazole-4-carboxamide], the half-inhibitory concentration (IC50) is 1 to 10 nM in experiment [1] and > 1000 nM in experiment [2] (setting [3]).
`C=CC(=O)N(C)C1COCCN(c2cnccc2-c2ccc(CNC(=O)c3cn(C(C)(C)C)nn3)c(C)c2)C1` (centres unmarked) [Example 52, 1-(tert-butyl)-N-(2-methyl-4-(3-(6-(N-methylacrylamido)-1,4-oxazepan-4-yl)pyridin-4-yl)benzyl)-1H-1,2,3-triazole-4-carboxamide]: the results for the IC50 in experiment [1] and in experiment [2] (setting [3]) were 1 to 10 nM and 100 to 1000 nM, respectively.
In the case of `C=CC(=O)N1CCN(c2cnccc2-c2ccc(CNC(=O)c3noc(C(C)(C)C)n3)c(C)c2)CC1` [Example 63, N-(4-(3-(4-acryloylpiperazin-1-yl)pyridin-4-yl)-2-methylbenzyl)-5-(tert-butyl)-1,2,4-oxadiazole-3-carboxamide], the IC50 in experiment [1] is ≤ 1 nM; in experiment [2] (setting [3]), 100 to 1000 nM.
With `Cc1cc(-c2ncncc2N2CCN(C(=O)/C=C/CN(C)C)CC2)ccc1CNC(=O)c1noc(C(C)(C)C)n1` [Example 82, (E)-5-(tert-butyl)-N-(4-(5-(4-(4-(dimethylamino)but-2-enoyl)piperazin-1-yl)pyrimidin-4-yl)-2-methylbenzyl)-1,2,4-oxadiazole-3-carboxamide], the IC50 was ≤ 1 nM in experiment [1] and < 100 nM in experiment [2] (setting [3]).
Consider `C=CC(=O)N(C)C1CCCN(c2cnccc2-c2ccc(CNC(=O)c3cn(C(C)(C)C)nn3)c(C)c2)C1` (centres unmarked) [Example 1, 1-(tert-butyl)-N-(2-methyl-4-(3-(3-(N-methylacrylamido)piperidin-1-yl)pyridin-4-yl)benzyl)-1H-1,2,3-triazole-4-carboxamide], for which the results for the IC50 in experiment [1] and in experiment [2] (setting [3]) were ≤ 1 nM and 100 to 1000 nM, respectively.
As for `Cc1cc(-c2ccncc2N2CCN(C(=O)/C=C/CN(C)C)CC2)ccc1CNC(=O)c1nc(C2(C)CC2)no1` [Example 73, (E)-N-(4-(3-(4-(4-(dimethylamino)but-2-enoyl)piperazin-1-yl)pyridin-4-yl)-2-methylbenzyl)-3-(1-methylcyclopropyl)-1,2,4-oxadiazole-5-carboxamide], the figures for the half-inhibitory concentration (IC50) in experiment [1] and in experiment [2] (setting [3]) were ≤ 1 nM and 100 to 1000 nM, respectively.
Turning to `C=CC(=O)N1CCC(c2cnccc2-c2ccc(CNC(=O)c3noc(C(C)(C)C)n3)c(C)c2)CC1` [Example 35, N-(4-(3-(1-acryloylpiperidin-4-yl)pyridin-4-yl)-2-methylbenzyl)-5-(tert-butyl)-1,2,4-oxadiazole-3-carboxamide], the concentration for half-maximal inhibition (IC50) in experiment [1] was in the range of 1 to 10 nM; in experiment [2] (setting [3]) it was 100 to 1000 nM.

Usually IC50 stands for the point on the concentration scale where inhibition reaches its midpoint.
